Data: patent US8030443B2, “Squamous cell carcinoma antigen-derived peptide binding to HLA-A24 molecule” (Kurume University, priority 2005, dated 2011)

Test system: peptide-specific IgG in sera of cancer patients and healthy donors
Assay: Measurement of anti-peptide IgG in plasma by LUMINEX multiplexed flow cytometric assay
Type: binding, human
Outline: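 Plasma diluted 1/100 incubated with peptide-coupled colour-coded beads 2 h at RT, then biotinylated goat anti-human IgG (γ-chain) 1 h and streptavidin-PE 30 min; fluorescence read by multiplexed flow cytometry, >100 counted significant. Specificity checked by three rounds of absorption on corresponding versus irrelevant SCCA peptide.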

## LFGEKTYLFL (SCCA 107-116 peptide) [SCCA-derived peptide, position 107-116]
10 healthy donors, significant when fluorescence intensity exceeded 100 at 1/100 dilution
  Total: healthy donors with significant peptide-reactive IgG / donors tested: 5/10
71 cancer patients, significant when fluorescence intensity exceeded 100 at 1/100 dilution
  Total: cancer patients with significant peptide-reactive IgG / patients tested: 27/71
Absorption assay: corresponding vs irrelevant SCCA peptide-coated wells (FIG. 3)
  Specificity of IgG reactive to the peptide: confirmed by absorption assay
Serum of Breast Ca. patient #36, 1:100 dilution
  Fluorescence intesity: 211
Serum of Breast Ca. patient #37, 1:100 dilution
  Fluorescence intesity: 242
Serum of Breast Ca. patient #38, 1:100 dilution
  Fluorescence intesity: 146
Serum of Breast Ca. patient #39, 1:100 dilution
  Fluorescence intesity: 149
Serum of Breast Ca. patient #40, 1:100 dilution
  Fluorescence intesity: 146
Serum of Breast Ca. patient #41, 1:100 dilution
  Fluorescence intesity: 269
Serum of Breast Ca. patient #42, 1:100 dilution
  Fluorescence intesity: 219
Serum of Breast Ca. patient #43, 1:100 dilution
  Fluorescence intesity: 136
Serum of Breast Ca. patient #44, 1:100 dilution
  Fluorescence intesity: 146
Serum of Breast Ca. patient #45, 1:100 dilution
  Fluorescence intesity: 272
Serum of Colon Ca. patient #66, 1:100 dilution
  Fluorescence intesity: 40
Serum of Colon Ca. patient #67, 1:100 dilution
  Fluorescence intesity: 49
Serum of Colon Ca. patient #68, 1:100 dilution
  Fluorescence intesity: 0
Serum of Colon Ca. patient #69, 1:100 dilution
  Fluorescence intesity: 20
Serum of Colon Ca. patient #70, 1:100 dilution
  Fluorescence intesity: 91
Serum of Colon Ca. patient #71, 1:100 dilution
  Fluorescence intesity: 70
Serum of Gastric Ca. patient #56, 1:100 dilution
  Fluorescence intesity: 38
Serum of Gastric Ca. patient #57, 1:100 dilution
  Fluorescence intesity: 114
Serum of Gastric Ca. patient #58, 1:100 dilution
  Fluorescence intesity: 133
Serum of Gastric Ca. patient #59, 1:100 dilution
  Fluorescence intesity: 237
Serum of Gastric Ca. patient #60, 1:100 dilution
  Fluorescence intesity: 24
Serum of Gastric Ca. patient #61, 1:100 dilution
  Fluorescence intesity: 282
Serum of Gastric Ca. patient #62, 1:100 dilution
  Fluorescence intesity: 37
Serum of Gastric Ca. patient #63, 1:100 dilution
  Fluorescence intesity: 29
Serum of Gastric Ca. patient #64, 1:100 dilution
  Fluorescence intesity: 67
Serum of Gastric Ca. patient #65, 1:100 dilution
  Fluorescence intesity: 72
Serum of Healthy Donor #1, 1:100 dilution
  Fluorescence intesity: 53
Serum of Healthy Donor #2, 1:100 dilution
  Fluorescence intesity: 297
Serum of Healthy Donor #3, 1:100 dilution
  Fluorescence intesity: 67
Serum of Healthy Donor #4, 1:100 dilution
  Fluorescence intesity: 0
Serum of Healthy Donor #5, 1:100 dilution
  Fluorescence intesity: 331
Serum of Healthy Donor #6, 1:100 dilution
  Fluorescence intesity: 0
Serum of Healthy Donor #7, 1:100 dilution
  Fluorescence intesity: 0
Serum of Healthy Donor #8, 1:100 dilution
  Fluorescence intesity: 454
Serum of Healthy Donor #9, 1:100 dilution
  Fluorescence intesity: 246
Serum of Healthy Donor #10, 1:100 dilution
  Fluorescence intesity: 106
Serum of Pancreas Ca. patient #46, 1:100 dilution
  Fluorescence intesity: 0
Serum of Pancreas Ca. patient #47, 1:100 dilution
  Fluorescence intesity: 115
Serum of Pancreas Ca. patient #48, 1:100 dilution
  Fluorescence intesity: 431
Serum of Pancreas Ca. patient #49, 1:100 dilution
  Fluorescence intesity: 30
Serum of Pancreas Ca. patient #50, 1:100 dilution
  Fluorescence intesity: 29
Serum of Pancreas Ca. patient #51, 1:100 dilution
  Fluorescence intesity: 2
Serum of Pancreas Ca. patient #52, 1:100 dilution
  Fluorescence intesity: 286
Serum of Pancreas Ca. patient #53, 1:100 dilution
  Fluorescence intesity: 43
Serum of Pancreas Ca. patient #54, 1:100 dilution
  Fluorescence intesity: 126
Serum of Pancreas Ca. patient #55, 1:100 dilution
  Fluorescence intesity: 0
Serum of Uterine cervical Ca. patient #1, 1:100 dilution
  Fluorescence intesity: 20
Serum of Uterine cervical Ca. patient #2, 1:100 dilution
  Fluorescence intesity: 106
Serum of Uterine cervical Ca. patient #3, 1:100 dilution
  Fluorescence intesity: 51
Serum of Uterine cervical Ca. patient #4, 1:100 dilution
  Fluorescence intesity: 109
Serum of Uterine cervical Ca. patient #5, 1:100 dilution
  Fluorescence intesity: 55
Serum of Uterine cervical Ca. patient #6, 1:100 dilution
  Fluorescence intesity: 925
Serum of Uterine cervical Ca. patient #7, 1:100 dilution
  Fluorescence intesity: 15
Serum of Uterine cervical Ca. patient #8, 1:100 dilution
  Fluorescence intesity: 30
Serum of Uterine cervical Ca. patient #9, 1:100 dilution
  Fluorescence intesity: 84
Serum of Uterine cervical Ca. patient #10, 1:100 dilution
  Fluorescence intesity: 14
Serum of Uterine cervical Ca. patient #11, 1:100 dilution
  Fluorescence intesity: 25
Serum of Uterine cervical Ca. patient #12, 1:100 dilution
  Fluorescence intesity: 41
Serum of Uterine cervical Ca. patient #13, 1:100 dilution
  Fluorescence intesity: 33
Serum of Uterine cervical Ca. patient #14, 1:100 dilution
  Fluorescence intesity: 22
Serum of Uterine cervical Ca. patient #15, 1:100 dilution
  Fluorescence intesity: 134
Serum of Uterine cervical Ca. patient #16, 1:100 dilution
  Fluorescence intesity: 193
Serum of Uterine cervical Ca. patient #17, 1:100 dilution
  Fluorescence intesity: 65
Serum of Uterine cervical Ca. patient #18, 1:100 dilution
  Fluorescence intesity: 62
Serum of Uterine cervical Ca. patient #19, 1:100 dilution
  Fluorescence intesity: 70
Serum of Uterine cervical Ca. patient #20, 1:100 dilution
  Fluorescence intesity: 90
Serum of Uterine cervical Ca. patient #21, 1:100 dilution
  Fluorescence intesity: 25
Serum of Uterine cervical Ca. patient #22, 1:100 dilution
  Fluorescence intesity: 19
Serum of Uterine cervical Ca. patient #23, 1:100 dilution
  Fluorescence intesity: 75
Serum of Uterine cervical Ca. patient #24, 1:100 dilution
  Fluorescence intesity: 1457
Serum of Uterine cervical Ca. patient #25, 1:100 dilution
  Fluorescence intesity: 16
Serum of Uterine cervical Ca. patient #26, 1:100 dilution
  Fluorescence intesity: 147
Serum of Uterine cervical Ca. patient #27, 1:100 dilution
  Fluorescence intesity: 39
Serum of Uterine cervical Ca. patient #28, 1:100 dilution
  Fluorescence intesity: 196
Serum of Uterine cervical Ca. patient #29, 1:100 dilution
  Fluorescence intesity: 19
Serum of Uterine cervical Ca. patient #30, 1:100 dilution
  Fluorescence intesity: 41
Serum of Uterine cervical Ca. patient #31, 1:100 dilution
  Fluorescence intesity: 108
Serum of Uterine cervical Ca. patient #32, 1:100 dilution
  Fluorescence intesity: 19
Serum of Uterine cervical Ca. patient #33, 1:100 dilution
  Fluorescence intesity: 170
Serum of Uterine cervical Ca. patient #34, 1:100 dilution
  Fluorescence intesity: 16
Serum of Uterine cervical Ca. patient #35, 1:100 dilution
  Fluorescence intesity: 20
